Where a SMILES comes first, the peptide text is derived from it.
Legend:
human GRF receptor = target: T1, human GRF receptor (Homo sapiens, UniProt Q02643); experiment: Alkaline phosphatase (AP) assay, GHRHr agonist activity; assay type: cell-based; conditions: BHK cells stably expressing human GRF receptor and alkaline phosphatase reporter gene; 24 hrs stimulation; read-out: EC50 (nM) as assessed by alkaline phosphatase (AP) induction
T1 construct: expressed in transfected cells; host or cells: baby hamster kidney (BHK) cells, stably transfected
T1 sequence (Q02643 23-423): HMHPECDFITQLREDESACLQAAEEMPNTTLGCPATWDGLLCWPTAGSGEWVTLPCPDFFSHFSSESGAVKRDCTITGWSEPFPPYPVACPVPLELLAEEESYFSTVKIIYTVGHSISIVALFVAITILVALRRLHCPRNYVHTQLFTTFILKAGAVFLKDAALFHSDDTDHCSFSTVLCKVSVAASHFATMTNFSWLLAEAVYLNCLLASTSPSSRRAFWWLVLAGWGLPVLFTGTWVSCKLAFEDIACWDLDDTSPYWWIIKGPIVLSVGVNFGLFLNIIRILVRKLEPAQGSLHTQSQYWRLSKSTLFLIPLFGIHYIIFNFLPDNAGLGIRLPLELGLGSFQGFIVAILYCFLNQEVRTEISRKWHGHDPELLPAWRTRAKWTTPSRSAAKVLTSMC
Description: The activity of representative GRF peptides was tested on baby hamster kidney (BHK) cells stably transfected to express the human GRF receptor and an alkaline phosphatase reporter gene. Cells were cultured 24 hours before stimulation, in 96-well plates, at a concentration of 0.5×10^5 cells/well. Before stimulation, cells were washed twice with DPBS and incubated 10-30 min in assay buffer (DMEM without phenol red supplemented with 20 mM HEPES and 1% heat inactivated fetal bovine serum (FBS). The dose response curve of the GRF peptides was done for 24 hrs with concentrations of peptides from 10^−5 M to 10^−11 M. Supernatant was collected and analysis of alkaline phosphatase levels was performed using the Alkaline Phosphatase detection kit from Applied Biosystems.
The in vitro activity of representative GRF analogs was tested on baby hamster kidney (BHK) cells expressing human GHRHr.

Growth Hormone secretion [1] = experiment: Growth Hormone secretion in female rats after subcutaneous GRF analog; assay type: in vivo; conditions: female Sprague-Dawley rats; 10 μg/rat subcutaneous; plasma 0-60 minutes
Excerpt: Sprague-Dawley rats (female, weighting from 250 to 300 g) were obtained from Charles River Inc. Animals were used according to a protocol of the Animal Care Committee along with the principles of the Guide for the Care and Use of Experimental Animals of the Canadian Council on Animal Care. The animals were maintained on standard laboratory chow under a 12:12 light:dark cycle. They were kept in groups of 4 rats per cage.
The animals were anesthetized with isoflurane 2.5%. A mid-section opening was made in the neck to expose the carotid artery. The carotid artery was canulated with polypropylene tubing (PE-50) to allow blood withdrawal. After surgical preparation, rats received a subcutaneous injection of GRF analog (10 μg/rat dissolved in 20 mM AcONa+5% mannitol at pH 5). For pharmacodynamics studies, blood samples (400 μL) were collected from 4 to 8 animals per group per time point. Blood samples (400 μl) were collected via the carotid catheter at 0, 10, 20, 30, 45 and 60 minutes after drug injection. Blood was placed into microtainer pre-treated with K3EDTA and immediately centrifuged at 13,000 RPM in a desktop centrifuge for 2 minutes. The plasma was collected and placed into a screw cap Eppendorf™ and quick frozen in liquid nitrogen. The samples were then kept at −80° C. until assayed. Determination of GH levels was performed as described below.
(§1) Rat and mouse plasma samples were vortexed carefully and centrifuged at 9,000 RPM for 2 min at 4° C. The dosage of GH levels was performed using the Rat/Mouse Growth Hormone ELISA kit from Millipore (Cat. # EZRMGH-45K). Sample supernatants were first diluted 20-fold with the GH ELISA assay buffer, and 10 μl of this dilution was added to the ELISA plate with 90 μl of GH EIA assay buffer. The remaining of the procedure was performed according to the manufacturer's instructions, and the data obtained were analyzed using GraphPad Prism™ software.
(§2) The GRF analogs described herein were tested for their ability to induce GH release in female mice and rats. […] The data are presented in Tables III (mice) and IV-V (rats).

Growth Hormone secretion [2] = experiment: Growth Hormone secretion in female mice after subcutaneous GRF analog; assay type: in vivo; conditions: female CD-1 mice; 10 μg/mouse subcutaneous; plasma 10 minutes after injection
Excerpt: CD-1 mice (female, weighting from 20 to 25 g) were obtained from Charles River Inc. Animals were used according to a protocol of the Animal Care Committee along with the principles of the Guide for the Care and Use of Experimental Animals of the Canadian Council on Animal Care. The animals were maintained on standard laboratory chow under a 12:12 light:dark cycle. They were kept in groups of 4 mice per cage.
At the day of the experiment, mice received a subcutaneous injection of GRF analog (10 μg/mouse dissolved in 20 mM sodium acetate (AcONa)+5% mannitol at pH 5). 10 minutes after injection, the mice were anesthezied with isolufrane. Blood samples (500 μl) were obtained by intra-cardiac puncture. Blood was placed into microtainer pre-treated with K3EDTA and immediately centrifuged at 13,000 RPM in a desktop centrifuge for 2 minutes. The plasma was collected and placed into a screwcap Eppendorf™ tube and quick frozen in liquid nitrogen. The samples were then kept at −80° C. until assayed. Determination of GH levels was performed as described below.
as §1, §2

Compound | EC50 (human GRF receptor) [nM] | Mean AUC (GH Area Under the curve, GH concentration over time) (Growth Hormone secretion [1]) | Mean Cmax (ng/ml) of Growth Hormone secretion (Growth Hormone secretion [1]) [ng/mL] | GH levels 10 min (Growth Hormone secretion [2]) [ng/mL]
CC[C@H](C)[C@H](NC(=O)[C@H](C)NC(=O)[C@H](CC(=O)O)NC(=O)CNC(=O)[C@@H](N)Cc1ccc(O)cc1)C(=O)N[C@@H](Cc1ccccc1)C(=O)N[C@H](C(=O)N[C@@H](CC(=O)O)C(=O)N[C@@H](CO)C(=O)N[C@@H](Cc1ccc(O)cc1)C(=O)N[C@@H](CCCNC(=N)N)C(=O)N[C@@H](CCCCN)C(=O)N[C@H](C(=O)N[C@@H](CC(C)C)C(=O)N[C@@H](C)C(=O)N[C@@H](CCC(N)=O)C(=O)N[C@@H](CC(C)C)C(=O)N[C@@H](CCCCN)C(=O)N[C@@H](C)C(=O)N[C@@H](CCCNC(=N)N)C(=O)N[C@@H](CCC(N)=O)C(=O)N[C@@H](CC(=O)O)C(=O)N[C@H](C(=O)N[C@@H](CC(C)C)C(=O)N[C@@H](C)C(=O)N[C@@H](CCCNC(=N)N)C(=O)N[C@@H](C)C(=O)N[C@@H](C)C(=O)N[C@@H](CCCNC(=N)N)C(=O)N[C@@H](C)C(=O)N[C@@H](C)C(=O)N[C@@H](CCCNC(=N)N)C(=O)N[C@@H](CCO)C(N)=O)[C@@H](C)CC)C(C)C)[C@@H](C)O [SEQ ID NO: 36, YGDAIFTDSYRKVLAQLKARQDILARAARAAR-HoSer-NH2] (HELM PEPTIDE1{Y.G.D.A.I.F.T.D.S.Y.R.K.V.L.A.Q.L.K.A.R.Q.D.I.L.A.R.A.A.R.A.A.R.[O=C([C@H](CCO)N[*:1])[*:2]].[am]}$$$$V2.0) | 0.2 | 6211 | 373.5 | –
CC[C@H](C)[C@H](NC(=O)[C@H](C)NC(=O)[C@H](CC(=O)O)NC(=O)[C@@H](C)NC(=O)[C@@H](N)Cc1ccc(O)cc1)C(=O)N[C@@H](Cc1ccccc1)C(=O)N[C@H](C(=O)N[C@@H](CC(=O)O)C(=O)N[C@@H](CO)C(=O)N[C@@H](Cc1ccc(O)cc1)C(=O)N[C@@H](CCCNC(=N)N)C(=O)N[C@@H](CCCCN)C(=O)N[C@H](C(=O)N[C@@H](CC(C)C)C(=O)N[C@@H](C)C(=O)N[C@@H](CCC(N)=O)C(=O)N[C@@H](CC(C)C)C(=O)N[C@@H](CCCCN)C(=O)N[C@@H](C)C(=O)N[C@@H](CCCNC(=N)N)C(=O)N[C@@H](CCC(N)=O)C(=O)N[C@@H](CC(=O)O)C(=O)N[C@H](C(=O)N[C@@H](CC(C)C)C(=O)N[C@@H](C)C(=O)N[C@@H](CCCNC(=N)N)C(=O)N[C@@H](C)C(=O)N[C@@H](C)C(=O)N[C@@H](CCCNC(=N)N)C(=O)N[C@@H](C)C(=O)N[C@@H](C)C(=O)N[C@@H](CCCNC(=N)N)C(=O)N[C@@H](CCO)C(N)=O)[C@@H](C)CC)C(C)C)[C@@H](C)O [SEQ ID NO: 37, Y-a-DAIFTDSYRKVLAQLKARQDILARAARAAR-HoSer-NH2] (HELM PEPTIDE1{Y.[dA].D.A.I.F.T.D.S.Y.R.K.V.L.A.Q.L.K.A.R.Q.D.I.L.A.R.A.A.R.A.A.R.[O=C([C@H](CCO)N[*:1])[*:2]].[am]}$$$$V2.0) | 0.2 | 14757 | 594.6 | –
CC/C=C/CC(=O)N[C@@H](Cc1ccc(O)cc1)C(=O)N[C@@H](C)C(=O)N[C@@H](CC(=O)O)C(=O)N[C@@H](C)C(=O)N[C@H](C(=O)N[C@@H](Cc1ccccc1)C(=O)N[C@H](C(=O)N[C@@H](CC(=O)O)C(=O)N[C@@H](CO)C(=O)N[C@@H](Cc1ccc(O)cc1)C(=O)N[C@@H](CCCNC(=N)N)C(=O)N[C@@H](CCCCN)C(=O)N[C@H](C(=O)N[C@@H](CC(C)C)C(=O)N[C@@H](C)C(=O)N[C@@H](CCC(N)=O)C(=O)N[C@@H](CC(C)C)C(=O)N[C@@H](CO)C(=O)N[C@@H](C)C(=O)N[C@@H](CCCNC(=N)N)C(=O)N[C@@H](CCC(N)=O)C(=O)N[C@@H](CC(=O)O)C(=O)N[C@H](C(=O)N[C@@H](CCSC)C(=O)N[C@@H](CO)C(=O)N[C@@H](CCCNC(=N)N)C(N)=O)[C@@H](C)CC)C(C)C)[C@@H](C)O)[C@@H](C)CC [SEQ ID NO: 44, Trans-3-hexenoyl-YADAIFTDSYRKVLAQLSARQDIMSR-NH2] (HELM PEPTIDE1{[CC/C=C/CC(=O)[*:2]].Y.A.D.A.I.F.T.D.S.Y.R.K.V.L.A.Q.L.S.A.R.Q.D.I.M.S.R.[am]}$$$$V2.0) | – | 984 | 44.2 | 15.2
CC/C=C/CC(=O)N[C@@H](Cc1ccc(O)cc1)C(=O)N[C@@H](C)C(=O)N[C@@H](CC(=O)O)C(=O)N[C@@H](C)C(=O)N[C@H](C(=O)N[C@@H](Cc1ccccc1)C(=O)N[C@H](C(=O)N[C@@H](CC(=O)O)C(=O)N[C@@H](CO)C(=O)N[C@@H](Cc1ccc(O)cc1)C(=O)N[C@@H](CCCNC(=N)N)C(=O)N[C@@H](CCCCN)C(=O)N[C@H](C(=O)N[C@@H](CC(C)C)C(=O)N[C@@H](C)C(=O)N[C@@H](CCC(N)=O)C(=O)N[C@@H](CC(C)C)C(=O)N[C@@H](CO)C(=O)N[C@@H](C)C(=O)N[C@@H](CCCNC(=N)N)C(=O)N[C@@H](CCC(N)=O)C(=O)N[C@@H](CC(=O)O)C(=O)N[C@H](C(=O)N[C@@H](CC(C)C)C(=O)N[C@@H](C)C(=O)N[C@@H](CCCNC(=N)N)C(N)=O)[C@@H](C)CC)C(C)C)[C@@H](C)O)[C@@H](C)CC [SEQ ID NO: 45, Trans-3-hexenoyl-YADAIFTDSYRKVLAQLSARQDILAR-NH2] (HELM PEPTIDE1{[CC/C=C/CC(=O)[*:2]].Y.A.D.A.I.F.T.D.S.Y.R.K.V.L.A.Q.L.S.A.R.Q.D.I.L.A.R.[am]}$$$$V2.0) | – | 1953 | 78.8 | 102.1
CC/C=C/CC(=O)N[C@@H](Cc1ccc(O)cc1)C(=O)N[C@@H](C)C(=O)N[C@@H](CC(=O)O)C(=O)N[C@@H](C)C(=O)N[C@H](C(=O)N[C@@H](Cc1ccccc1)C(=O)N[C@H](C(=O)N[C@@H](CC(=O)O)C(=O)N[C@@H](CO)C(=O)N[C@@H](Cc1ccc(O)cc1)C(=O)N[C@@H](CCCNC(=N)N)C(=O)N[C@@H](CCCCN)C(=O)N[C@H](C(=O)N[C@@H](CC(C)C)C(=O)N[C@@H](C)C(=O)N[C@@H](CCC(N)=O)C(=O)N[C@@H](CC(C)C)C(=O)N[C@@H](CO)C(=O)N[C@@H](C)C(=O)N[C@@H](CCCNC(=N)N)C(=O)N[C@@H](CCC(N)=O)C(=O)N[C@@H](CC(=O)O)C(=O)N[C@H](C(=O)N[C@@H](CC(C)C)C(=O)N[C@@H](CO)C(=O)N[C@H](CCCNC(=N)N)C(N)=O)[C@@H](C)CC)C(C)C)[C@@H](C)O)[C@@H](C)CC [SEQ ID NO: 46, Trans-3-hexenoyl-YADAIFTDSYRKVLAQLSARQDILS-r-NH2] (HELM PEPTIDE1{[CC/C=C/CC(=O)[*:2]].Y.A.D.A.I.F.T.D.S.Y.R.K.V.L.A.Q.L.S.A.R.Q.D.I.L.S.[dR].[am]}$$$$V2.0) | – | 1453 | 57.3 | 10.6

— US8361964B2, “Growth hormone releasing factor (GRF) analogs and uses thereof” (Theratechnologies Inc., priority 2011, dated 2013)
